Inhibition data for one compound are collected here from PMC3077598 (The Journal of Biological Chemistry, 2011).

In experiment [1] the target is TASK-1 (Homo sapiens, UniProt O14649, T199A). As to the kind of experiment: two-electrode voltage clamp, Xenopus oocytes. Format: cell-based. As to conditions: read-out: % inhibition at 400 nM. A general note: Two-electrode voltage clamp is typically applied to oocytes expressing channels or transporters.
Experiment [2] addresses TASK-1 (Homo sapiens, UniProt O14649, T93A). The experiment in a line: two-electrode voltage clamp, Xenopus oocytes. Format: cell-based. As to conditions: read-out: % inhibition at 400 nM.

TASK-1 (Homo sapiens, UniProt O14649, T93A), sequence (O14649 whole entry T93A): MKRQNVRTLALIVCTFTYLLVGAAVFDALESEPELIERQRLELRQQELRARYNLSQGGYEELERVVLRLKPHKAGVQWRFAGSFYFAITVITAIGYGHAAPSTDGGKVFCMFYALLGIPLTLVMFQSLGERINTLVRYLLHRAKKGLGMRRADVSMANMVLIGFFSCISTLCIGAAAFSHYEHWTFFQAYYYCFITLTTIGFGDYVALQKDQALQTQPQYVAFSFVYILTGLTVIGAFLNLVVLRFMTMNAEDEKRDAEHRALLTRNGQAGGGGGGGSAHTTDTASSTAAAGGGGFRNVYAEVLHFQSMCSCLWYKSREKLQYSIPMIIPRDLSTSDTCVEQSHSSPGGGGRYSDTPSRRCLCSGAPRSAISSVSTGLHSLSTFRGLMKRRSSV
TASK-1 (Homo sapiens, UniProt O14649, T199A), sequence (O14649 whole entry T199A): as the sequence (O14649 whole entry T93A) above, with A93T, T199A counted along it

Regarding `COc1ccc(CC(=O)NCc2ccccc2-c2ccccc2C(=O)NCc2ccc(F)cc2F)cc1` [A1899], the figures for the inhibition at 0.4 µM in experiment [1] and in experiment [2] were 36.4 ± 6.4% and 26.4 ± 6.4%, respectively.

Usually inhibition stands for the change of the read-out against control, counted positive when it falls.
